Assays:
[1] = tested on: HepG2; assay: Antiproliferative activity against VEGF-stimulated human HepG2 cells after 48 hrs by CCK8 assay; format: functional, cell-based; conditions: HepG2, 48 h
[2] = tested on: A549; assay: Antiproliferative activity against VEGF-stimulated human A549 cells after 48 hrs by CCK8 assay; format: functional, cell-based; conditions: A549, 48 h
[3] = Selectivity ratio of IC50 for VEGF-stimulated human HepG2 cells to IC50 for VEGF-stimulated human A549 cells; format: functional
[4] = molecular target: Vascular endothelial growth factor receptor 2 (Homo sapiens, UniProt P35968); assay: biochemical; format: cell-based, Sf9
Chain of Vascular endothelial growth factor receptor 2 (P35968 whole entry): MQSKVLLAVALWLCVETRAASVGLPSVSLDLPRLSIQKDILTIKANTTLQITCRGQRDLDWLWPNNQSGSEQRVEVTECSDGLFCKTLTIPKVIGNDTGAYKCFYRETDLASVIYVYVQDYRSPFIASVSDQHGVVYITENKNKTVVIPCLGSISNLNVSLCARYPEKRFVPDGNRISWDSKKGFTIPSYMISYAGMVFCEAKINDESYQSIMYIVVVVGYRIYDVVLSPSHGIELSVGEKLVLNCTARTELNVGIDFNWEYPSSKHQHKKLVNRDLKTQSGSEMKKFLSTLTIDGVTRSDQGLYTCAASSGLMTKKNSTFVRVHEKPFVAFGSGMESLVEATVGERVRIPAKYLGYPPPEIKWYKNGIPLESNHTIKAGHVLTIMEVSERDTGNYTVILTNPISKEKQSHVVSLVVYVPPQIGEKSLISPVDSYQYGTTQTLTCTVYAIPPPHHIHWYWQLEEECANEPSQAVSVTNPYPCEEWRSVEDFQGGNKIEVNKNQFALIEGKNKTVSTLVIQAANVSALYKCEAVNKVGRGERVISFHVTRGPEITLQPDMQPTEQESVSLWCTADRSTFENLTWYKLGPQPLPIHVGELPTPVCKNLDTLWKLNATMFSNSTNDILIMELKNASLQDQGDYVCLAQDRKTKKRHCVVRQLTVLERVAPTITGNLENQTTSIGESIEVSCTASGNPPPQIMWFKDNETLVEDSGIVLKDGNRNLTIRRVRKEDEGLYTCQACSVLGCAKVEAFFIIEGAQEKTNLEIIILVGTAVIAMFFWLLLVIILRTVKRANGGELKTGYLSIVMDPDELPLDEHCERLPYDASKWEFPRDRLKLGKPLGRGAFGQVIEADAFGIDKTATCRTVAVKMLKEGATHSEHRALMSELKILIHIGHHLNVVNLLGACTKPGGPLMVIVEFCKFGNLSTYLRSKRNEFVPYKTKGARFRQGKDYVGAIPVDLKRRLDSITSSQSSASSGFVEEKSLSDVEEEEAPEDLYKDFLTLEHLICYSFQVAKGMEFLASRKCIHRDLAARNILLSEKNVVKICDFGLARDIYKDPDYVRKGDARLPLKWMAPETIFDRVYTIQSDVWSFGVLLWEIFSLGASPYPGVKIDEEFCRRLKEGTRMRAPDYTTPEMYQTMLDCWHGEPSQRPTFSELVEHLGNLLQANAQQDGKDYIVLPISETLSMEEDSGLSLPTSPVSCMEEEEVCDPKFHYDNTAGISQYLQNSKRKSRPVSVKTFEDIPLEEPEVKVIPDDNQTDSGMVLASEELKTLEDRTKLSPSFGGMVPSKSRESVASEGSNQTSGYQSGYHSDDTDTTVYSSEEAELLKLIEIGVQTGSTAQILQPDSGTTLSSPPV
Description: Inhibition of recombinant human N-terminal GST-tagged VEGFR2 (789 to end residues) expressed in baculovirus infected Sf9 insect cells using Poly (4:1 Glu,Tyr) as substrate measured after 1 hr by ADP-Glo kinase assay

| SMILES | IC50 [1] | IC50 [2] | IC50 [4] | Ratio IC50 [3] |
| --- | --- | --- | --- | --- |
| O=C(c1cc(Oc2ccc(/C=C/c3ccncc3)cc2)ccn1)N1CCCC1 | 41.6 µM | 18.6 µM | – | 2.2 |
| O=C(NC1CC1)c1cc(Oc2ccc(/C=C/c3ccccn3)cc2)ccn1 | 31 µM | 17.3 µM | – | 1.8 |
| COc1ccc(NC(=O)c2cc(Oc3ccc(/C=C/c4ccncc4)cc3)ccn2)cc1 | > 100 µM | 25.6 µM | – | >3.9 |
| COc1ccc(NC(=O)c2cc(Oc3ccc(/C=C/c4ccccn4)cc3)ccn2)cc1 | 30 µM | 20 µM | – | 1.5 |
| CNC(=O)c1cc(Oc2ccc(/C=C/c3ccccn3)cc2)ccn1 | 21.6 µM | 17.4 µM | 0.87 µM | 1.2 |
| COc1ccc(CNC(=O)c2cc(Oc3ccc(/C=C/c4ccccn4)cc3)ccn2)cc1 | 26 µM | 63.6 µM | – | 0.4 |
| CC(C)NC(=O)c1cc(Oc2ccc(/C=C/c3ccncc3)cc2)ccn1 | 33.7 µM | 20.6 µM | – | 1.6 |
| O=C(NC1CCCCC1)c1cc(Oc2ccc(/C=C/c3ccncc3)cc2)ccn1 | 22.4 µM | 16.8 µM | 1.22 µM | 1.3 |
| O=C(NCc1ccc(F)cc1)c1cc(Oc2ccc(/C=C/c3ccncc3)cc2)ccn1 | 37.2 µM | 18.2 µM | – | 2 |
| O=C(NCc1ccccc1)c1cc(Oc2ccc(/C=C/c3ccccn3)cc2)ccn1 | 27.9 µM | 18.8 µM | – | 1.5 |
| O=C(NCc1ccc(F)cc1)c1cc(Oc2ccc(/C=C/c3ccccn3)cc2)ccn1 | 45.1 µM | > 100 µM | – | <0.5 |
| O=C(Nc1ccccc1)c1cc(Oc2ccc(/C=C/c3ccccn3)cc2)ccn1 | 30.2 µM | 19.1 µM | – | 1.6 |
| CNC(=O)c1cc(Oc2ccc(NC(=O)Nc3ccc(Cl)c(C(F)(F)F)c3)cc2)ccn1 [SORAFENIB] | 29 µM | 19.3 µM | – | – |

Continued, in another order:

| IC50 [1] | IC50 [2] | IC50 [4] | SMILES | Ratio IC50 [3] |
| --- | --- | --- | --- | --- |
| 28.9 µM | 17 µM | – | O=C(NCc1ccccc1)c1cc(Oc2ccc(/C=C/c3ccncc3)cc2)ccn1 | 1.7 |
| 31.3 µM | 16.2 µM | – | O=C(Nc1ccc(Cl)cc1)c1cc(Oc2ccc(/C=C/c3ccccn3)cc2)ccn1 | 1.9 |
| > 100 µM | 21.4 µM | – | CC(C)NC(=O)c1cc(Oc2ccc(/C=C/c3ccccn3)cc2)ccn1 | >4.7 |
| 27 µM | 15.6 µM | – | O=C(c1cc(Oc2ccc(/C=C/c3ccccn3)cc2)ccn1)N1CCCC1 | 1.7 |
| 56.2 µM | 62.1 µM | – | O=C(Nc1ccc(Cl)cc1)c1cc(Oc2ccc(/C=C/c3ccncc3)cc2)ccn1 | 0.9 |
| > 100 µM | 19.3 µM | – | COc1ccc(CNC(=O)c2cc(Oc3ccc(/C=C/c4ccncc4)cc3)ccn2)cc1 | >5.2 |
| 77.5 µM | 35.5 µM | – | O=C(NC1CC1)c1cc(Oc2ccc(/C=C/c3ccncc3)cc2)ccn1 | 2.2 |
| 18.2 µM | 13.2 µM | 0.29 µM | CNC(=O)c1cc(Oc2ccc(/C=C/c3ccncc3)cc2)ccn1 | 1.4 |
| 20.6 µM | 12.5 µM | 0.53 µM | O=C(NC1CCCCC1)c1cc(Oc2ccc(/C=C/c3ccccn3)cc2)ccn1 | 1.6 |
| > 100 µM | 79.7 µM | – | O=C(Nc1ccccc1)c1cc(Oc2ccc(/C=C/c3ccncc3)cc2)ccn1 | >1.2 |

From ChEMBL document CHEMBL4257501, “Discovery of novel picolinamide-based derivatives as novel VEGFR-2 kinase inhibitors: synthesis, in vitro biological evaluation and molecular docking” (Medchemcomm, 2018)
